In the NIST ThermoML archive (doi:10.1021/je0500734):

Assays:
[1] = xn = mol fraction of the nth substance listed; settings: 101.33 kPa, Liquid; for speed of sound: acoustic time of flight gauge
[2] = 101.33 kPa, Liquid; for kinematic viscosity: Capillary tube (Ostwald / Ubbelohde) method; for speed of sound: acoustic time of flight gauge

C[N+](=O)[O-] [nitromethane] + [2H]OCCCCC
[1], x1 = 1
Settings	mass density [kg/m3]	viscosity [mPa·s]
301.3 K	1126.04	0.6074
306.3 K	1119.15	0.5623

[2H]OCCCCC [pentan-1-ol-d]
[2]
Settings	kinematic viscosity [m2/s]	mass density [kg/m3]	speed of sound [m/s]	viscosity [mPa·s]
293.15 K	4.99e-06	821.69	1282.3	–
295.15 K	4.458e-06	819.5	1273.7	–
298.15 K	4.238e-06	818.04	1265.1	–
300.15 K	3.969e-06	816.42	1258.3	–
301.3 K	–	815.63	–	3.118
303.15 K	3.685e-06	814.24	1248.5	–
305.15 K	3.456e-06	813.1	1241.1	–
306.3 K	–	811.88	–	2.685
308.15 K	3.148e-06	810.47	1230.8	–

[2H]OCCCCC [pentan-1-ol-d] + C[N+](=O)[O-]
[1]
Settings	mass density, 301.3 K [kg/m3]	mass density, 306.3 K [kg/m3]	viscosity, 301.3 K [mPa·s]	viscosity, 306.3 K [mPa·s]
x2 = 0	815.63	811.88	3.118	2.685
x2 = 0.07	825.73	821.85	–	–
x2 = 0.106	–	–	2.465	2.186
x2 = 0.154	839.37	835.21	–	–
x2 = 0.231	852.09	847.81	–	–
x2 = 0.245	–	–	1.937	1.678
x2 = 0.298	862.5	858.1	–	–
x2 = 0.385	879.49	873.8	–	–
x2 = 0.386	–	–	1.497	1.319
x2 = 0.503	906.93	904.01	–	–
x2 = 0.508	–	–	1.161	1.066
x2 = 0.551	920.64	917.49	–	–
x2 = 0.555	–	–	1.097	0.9975
x2 = 0.623	–	–	1.004	0.8782
x2 = 0.651	954.06	950.15	–	–
x2 = 0.679	–	–	0.9207	0.7937
x2 = 0.718	–	–	0.8419	0.729
x2 = 0.74	989.43	983.56	–	–
x2 = 0.749	–	–	0.7878	0.6974
x2 = 0.774	–	–	0.7451	0.6734
x2 = 0.847	1037.27	1031.12	–	–
x2 = 0.946	1090.5	1083.88	–	–

CCCCCO [pentan-1-ol]
[2]
Settings	kinematic viscosity [m2/s]	mass density [kg/m3]	speed of sound [m/s]	viscosity [mPa·s]
293.15 K	4.96e-06	815.09	1290.7	–
295.15 K	4.444e-06	812.74	1282.1	–
298.15 K	4.223e-06	811.4	1273.6	–
300.15 K	3.942e-06	809.72	1266.7	–
301.15 K	–	808.96	1263.3	3.113
303.15 K	3.635e-06	807.41	1256.4	–
303.5 K	–	807.33	–	2.997
305.15 K	3.45e-06	805.78	1249.4	–
306.15 K	–	805.17	1246.2	2.686
307.5 K	–	803.76	–	2.57
308.15 K	3.129e-06	803.71	1239.3	–

CCCCCO [pentan-1-ol] + C[N+](=O)[O-]
[1], x2 = 0
Settings	mass density [kg/m3]	speed of sound [m/s]	viscosity [mPa·s]
301.15 K	808.96	1263.3	3.113
306.15 K	805.17	1246.2	2.686

CCCCCO [pentan-1-ol] + [2H]C([2H])([2H])[N+](=O)[O-]
[1], x2 = 0
Settings	mass density [kg/m3]	viscosity [mPa·s]
303.5 K	807.33	2.997
307.5 K	803.76	2.57
